Experimental data reported in US10676465B2, “GLP-1 receptor agonists and uses thereof” (Pfizer Inc., priority 2018, dated 2020).
Read-outs that look alike come from different tables or passages of the source.

Experiments:
[1] = target: human GLP-1R (Homo sapiens (Human), UniProt P43220, L260F); experiment: CHO GLP-1R Clone C6 - Assay 2 (HTRF cAMP agonist assay, low receptor density); conditions: for EC50: CHO GLP-1R Clone C6 (low receptor density), cAMP HTRF, geometric mean; for Emax: read-out: Assay 2 Emax (%), CHO GLP-1R Clone C6 (low receptor density), arithmetic mean, relative to saturating GLP-1 (1 μM)
Experimental: CHO GLP-1R Clone C6—Assay 2
GLP-1R-mediated agonist activity was determined with a cell-based functional assay utilizing an HTRF (Homogeneous Time-Resolved Fluorescence) cAMP detection kit (cAMP HI Range Assay Kit; Cis Bio cat #62AM6PEJ) that measures cAMP levels in the cell. The method is a competitive immunoassay between native cAMP produced by the cells and exogenous cAMP labeled with the dye d2. The tracer binding is visualized by a mAb anti-cAMP labeled with Cryptate. The specific signal (i.e. energy transfer) is inversely proportional to the concentration of cAMP in either a standard or an experimental sample.
The human GLP-1R coding sequence (NCBI Reference Sequence NP_002053.3, including naturally-occurring variant Leu260Phe) was subcloned into pcDNA5-FRT-TO and a clonal CHO cell line stably expressing a low receptor density was isolated using the Flp-In™ T-Rex™ System, as described by the manufacturer (ThermoFisher).
Cells were removed from cryopreservation, re-suspended in 40 mL of Dulbecco's Phosphate Buffered Saline (DPBS—Lonza Cat #17-512Q) and centrifuged at 800×g for 5 minutes at 22° C. The DPBS was aspirated, and the cell pellet was re-suspended in 10 mL of complete growth medium (DMEM:F12 1:1 Mixture with HEPES, L-Gln, 500 mL (DMEM/F12 Lonza Cat #12-719F), 10% heat inactivated fetal bovine serum (Gibco Cat #16140-071), 5 mL of 100× Pen-Strep (Gibco Cat #15140-122), 5 mL of 100×L-Glutamine (Gibco Cat #25030-081), 700 μg/mL Hygromycin (Invitrogen Cat #10687010) and 15 μg/mL Blasticidin (Gibco Cat # R21001). A 1 mL sample of the cell suspension in growth media was counted on a Becton Dickinson ViCell to determine cell viability and cell count per mL. The remaining cell suspension was then adjusted with growth media to deliver 1600 viable cells per well using a Matrix Combi Multidrop reagent dispenser, and the cells were dispensed into a white 384 well tissue culture treated assay plate (Corning 3570). The assay plate was then incubated for 48 hours at 37° C. in a humidified environment (95% O2, 5% CO2)
Varying concentrations of each compound to be tested (in DMSO) were diluted in assay buffer [HBSS with Calcium/Magnesium (Lonza/BioWhittaker cat #10-527F)/0.1% BSA (Sigma Aldrich cat # A7409-1L)/20 mM HEPES (Lonza/BioWhittaker cat #17-737E)] containing 100 μM 3-isobutyl-1-methylxanthin (IBMX; Sigma cat #15879). The final DMSO concentration in the compound/assay buffer mixture is 1%.
After 48 hours, the growth media was removed from the assay plate wells, and the cells were treated with 20 μL of the serially diluted compound in assay buffer for 30 minutes at 37° C. in a humidified environment (95% O2, 5% CO2). Following the 30 minute incubation, 10 μL of labeled d2 cAMP and 10 μL of anti-cAMP antibody (both diluted 1:20 in cell lysis buffer; as described in the manufacturer's assay protocol) were added to each well of the assay plate. The plates were then incubated at room temperature and after 60 minutes, changes in the HTRF signal were read with an Envision 2104 multi-label plate reader using excitation of 330 nm and emissions of 615 and 665 nm. Raw data were converted to nM cAMP by interpolation from a cAMP standard curve (as described in the manufacturer's assay protocol) and the percent effect was determined relative to a saturating concentration of the full agonist GLP-1 (1 μM) included on each plate. EC50 determinations were made from agonist dose response curves analyzed with a curve fitting program using a 4-parameter logistic dose response equation.

[2] = target: human GLP-1R (Homo sapiens, UniProt P43220, G168S); experiment: CHO GLP-1R Clone H6 - Assay 1 (HTRF cAMP agonist assay); type: cell-based; conditions: for EC50: CHO GLP-1R Clone H6, cAMP HTRF, geometric mean; for Emax: CHO GLP-1R Clone H6, arithmetic mean, relative to saturating GLP-1 (1 μM)
Chain of human GLP-1R (Homo sapiens, UniProt P43220, G168S) (P43220 24-463 G168S limits assumed): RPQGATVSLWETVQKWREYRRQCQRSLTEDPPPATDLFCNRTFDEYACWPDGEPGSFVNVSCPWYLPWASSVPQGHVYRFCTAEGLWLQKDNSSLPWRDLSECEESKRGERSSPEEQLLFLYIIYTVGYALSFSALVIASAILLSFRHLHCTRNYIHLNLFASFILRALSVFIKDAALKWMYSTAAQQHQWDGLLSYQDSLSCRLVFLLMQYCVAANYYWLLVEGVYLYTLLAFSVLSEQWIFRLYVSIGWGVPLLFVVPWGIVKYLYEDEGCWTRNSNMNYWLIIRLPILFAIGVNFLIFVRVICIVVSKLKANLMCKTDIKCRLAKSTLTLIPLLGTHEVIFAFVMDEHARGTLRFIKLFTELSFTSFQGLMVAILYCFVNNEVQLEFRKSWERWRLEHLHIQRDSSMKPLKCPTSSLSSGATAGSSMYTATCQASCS
Experimental: GLP-1R-mediated agonist activity was determined with a cell-based functional assay utilizing an HTRF (Homogeneous Time-Resolved Fluorescence) cAMP detection kit (cAMP HI Range Assay Kit; CisBio cat #62AM6PEJ) that measures cAMP levels in the cell. The method is a competitive immunoassay between native cAMP produced by the cells and exogenous cAMP labeled with the dye d2. The tracer binding is visualized by a mAb anti-cAMP labeled with Cryptate. The specific signal (i.e. energy transfer) is inversely proportional to the concentration of cAMP in either standard or experimental sample.
The human GLP-1R coding sequence (NCBI Reference Sequence NP_002053.3, including naturally-occurring variant Gly168Ser) was subcloned into pcDNA3 (Invitrogen) and a cell line stably expressing the receptor was isolated (designated Clone H6).
Cells were removed from cryopreservation, re-suspended in 40 mL of Dulbecco's Phosphate Buffered Saline (DPBS—Lonza Cat #17-512Q) and centrifuged at 800×g for 5 minutes at 22° C. The cell pellet was then re-suspended in 10 mL of growth medium [DMEM/F12 1:1 Mixture with HEPES, L-Gln, 500 mL (DMEM/F12 Lonza Cat #12-719F), 10% heat inactivated fetal bovine serum (Gibco Cat #16140-071), 5 mL of 100× Pen-Strep (Gibco Cat #15140-122), 5 mL of 100×L-Glutamine (Gibco Cat #25030-081) and 500 μg/mL Geneticin (G418) (Invitrogen #10131035)]. A 1 mL sample of the cell suspension in growth media was counted on a Becton Dickinson ViCell to determine cell viability and cell count per mL. The remaining cell suspension was then adjusted with growth media to deliver 2000 viable cells per well using a Matrix Combi Multidrop reagent dispenser, and the cells were dispensed into a white 384 well tissue culture treated assay plate (Corning 3570). The assay plate was then incubated for 48 hours at 37° C. in a humidified environment in 5% carbon dioxide.
Varying concentrations of each compound to be tested (in DMSO) were diluted in assay buffer (HBSS with Calcium/Magnesium (Lonza/BioWhittaker cat #10-527F)/0.1% BSA (Sigma Aldrich cat # A7409-1L)/20 mM HEPES (Lonza/BioWhittaker cat #17-737E) containing 100 μM 3-isobutyl-1-methylxanthin (IBMX; Sigma cat #15879). The final DMSO concentration is 1%.
After 48 hours, the growth media was removed from the assay plate wells, and the cells were treated with 20 μL of the serially diluted compound in assay buffer for 30 minutes at 37° C. in a humidified environment in 5% carbon dioxide. Following the 30 minute incubation, 10 μL of labeled d2 cAMP and 10 μL of anti-cAMP antibody (both diluted 1:20 in cell lysis buffer; as described in the manufacturer's assay protocol) were added to each well of the assay plate. The plates were then incubated at room temperature and after 60 minutes, changes in the HTRF signal were read with an Envision 2104 multi-label plate reader using excitation of 330 nm and emissions of 615 and 665 nm. Raw data were converted to nM cAMP by interpolation from a cAMP standard curve (as described in the manufacturer's assay protocol) and the percent effect was determined relative to a saturating concentration of the full agonist GLP-17-36 (1 μM) included on each plate. EC50 determinations were made from agonist dose-response curves analyzed with a curve fitting program using a 4-parameter logistic dose response equation.

Chain of human GLP-1R (Homo sapiens (Human), UniProt P43220, L260F) (P43220 24-463 L260F): as the sequence (P43220 24-463 G168S limits assumed) above, with S145G, L237F counted along it

Structure (SMILES)	EC50 ([1]; read-out: Assay 2 EC50)	Emax [1]	EC50 [2]	Emax [2]	EC50 ([1]; Assay 2 EC50 (nM))
CC(=O)N(C)CCn1c(CN2CCC(c3cccc4c3OC(C)(c3ccc(Cl)cc3F)O4)CC2)nc2ccc(C(=O)O)cc21 (stereo not drawn) [Example 43, 1-{2-[acetyl(methyl)amino]ethyl}-2-({4-[2-(4-chloro-2-fluorophenyl)-2-methyl-1,3-benzodioxol-4-yl]piperidin-1-yl}methyl)-1H-benzimidazole-6-carboxylic acid]	65 nM	86%	3.5 nM	88%	
CC1(c2ccc(Cl)cc2F)Oc2cccc(C3CCN(Cc4nc5ccc(C(=O)O)cc5n4Cc4ccccn4)CC3)c2O1 (stereo not drawn) [Example 45, 2-({4-[2-(4-chloro-2-fluorophenyl)-2-methyl-1,3-benzodioxol-4-yl]piperidin-1-yl}methyl)-1-(pyridin-2-ylmethyl)-1H-benzimidazole-6-carboxylic acid]	220 nM	79%	9.9 nM	81%	
CC1(c2ccc(Cl)cc2F)Oc2cccc(C3CCN(Cc4nc5ccc(C(=O)O)cc5n4CCN4CCOC4=O)CC3)c2O1 (stereo not drawn) [Example 46, 2-({4-[2-(4-chloro-2-fluorophenyl)-2-methyl-1,3-benzodioxol-4-yl]piperidin-1-yl}methyl)-1-[2-(2-oxo-1,3-oxazolidin-3-yl)ethyl]-1H-benzimidazole-6-carboxylic acid]	57 nM	96%	5.2 nM	95%	
CN(C)S(=O)(=O)CCn1c(CN2CCC(c3cccc4c3OC(C)(c3ccc(Cl)cc3F)O4)CC2)nc2ccc(C(=O)O)cc21 (stereo not drawn) [Example 47, 2-({4-[2-(4-chloro-2-fluorophenyl)-2-methyl-1,3-benzodioxol-4-yl]piperidin-1-yl}methyl)-1-[2-(dimethylsulfamoyl)ethyl]-1H-benzimidazole-6-carboxylic acid]	1400 nM	76%	42 nM	75%	
CC1(c2ccc(Cl)cc2F)Oc2cccc(C3CCN(Cc4nc5ccc(C(=O)O)cc5n4CCN4CCCC4=O)CC3)c2O1 (stereo not drawn) [Example 48, 2-({4-[2-(4-chloro-2-fluorophenyl)-2-methyl-1,3-benzodioxol-4-yl]piperidin-1-yl}methyl)-1-[2-(2-oxopyrrolidin-1-yl)ethyl]-1H-benzimidazole-6-carboxylic acid]	280 nM	73%	14 nM	81%	
CC1(c2ccc(Cl)cc2F)Oc2cccc(C3CCN(Cc4nc5ccc(C(=O)O)cc5n4CCn4ccnc4)CC3)c2O1 (stereo not drawn) [Example 50, 2-({4-[2-(4-chloro-2-fluorophenyl)-2-methyl-1,3-benzodioxol-4-yl]piperidin-1-yl}methyl)-1-[2-(1H-imidazol-1-yl)ethyl]-1H-benzimidazole-6-carboxylic acid]	140 nM	92%	12 nM	87%	
CCn1ccnc1Cn1c(CN2CCC(c3cccc4c3OC(C)(c3ccc(Cl)cc3F)O4)CC2)nc2ccc(C(=O)O)cc21 (stereo not drawn) [Example 51, 2-({4-[2-(4-chloro-2-fluorophenyl)-2-methyl-1,3-benzodioxol-4-yl]piperidin-1-yl}methyl)-1-[(1-ethyl-1H-imidazol-2-yl)methyl]-1H-benzimidazole-6-carboxylic acid]	280 nM	81%	19 nM	80%	
CNC(=O)Cn1c(CN2CCC(c3cccc4c3OC(C)(c3ccc(Cl)cc3F)O4)CC2)nc2ccc(C(=O)O)cc21 (stereo not drawn) [Example 52, 2-({4-[2-(4-chloro-2-fluorophenyl)-2-methyl-1,3-benzodioxol-4-yl]piperidin-1-yl}methyl)-1-[2-(methylamino)-2-oxoethyl]-1H-benzimidazole-6-carboxylic acid]	570 nM	80%	32 nM	85%	
CC1(c2ccc(Cl)cc2F)Oc2cccc(C3CCN(Cc4nc5ccc(C(=O)O)cc5n4CCn4cccn4)CC3)c2O1 (stereo not drawn) [Example 53, 2-({4-[2-(4-chloro-2-fluorophenyl)-2-methyl-1,3-benzodioxol-4-yl]piperidin-1-yl}methyl)-1-[2-(1H-pyrazol-1-yl)ethyl]-1H-benzimidazole-6-carboxylic acid]	52 nM	84%	3.1 nM	87%	
CC1(c2ccc(Cl)cc2F)Oc2cccc(C3CCN(Cc4nc5ccc(C(=O)O)cc5n4CCCn4cncn4)CC3)c2O1 (stereo not drawn) [Example 54, 2-({4-[2-(4-chloro-2-fluorophenyl)-2-methyl-1,3-benzodioxol-4-yl]piperidin-1-yl}methyl)-1-[3-(1H-1,2,4-triazol-1-yl)propyl]-1H-benzimidazole-6-carboxylic acid]	160 nM	64%	18 nM	82%	
Cn1cnc(CCn2c(CN3CCC(c4cccc5c4OC(C)(c4ccc(Cl)cc4F)O5)CC3)nc3ccc(C(=O)O)cc32)c1 (stereo not drawn) [Example 55, 2-({4-[2-(4-chloro-2-fluorophenyl)-2-methyl-1,3-benzodioxol-4-yl]piperidin-1-yl}methyl)-1-[2-(1-methyl-1H-imidazol-4-yl)ethyl]-1H-benzimidazole-6-carboxylic acid]	1100 nM	50%	74 nM	81%	
CC1(c2ccc(Cl)cc2F)Oc2cccc(C3CCN(Cc4nc5ccc(C(=O)O)cc5n4CC4CCOC4)CC3)c2O1 (stereo not drawn) [Example 56, 2-({4-[2-(4-chloro-2-fluorophenyl)-2-methyl-1,3-benzodioxol-4-yl]piperidin-1-yl}methyl)-1-(tetrahydrofuran-3-ylmethyl)-1H-benzimidazole-6-carboxylic acid]	11 nM	81%	1.2 nM	87%	
Cn1ncnc1Cn1c(CN2CCC(c3cccc4c3OC(C)(c3ccc(Cl)cc3F)O4)CC2)nc2ccc(C(=O)O)cc21 (stereo not drawn) [Example 57, 2-({4-[2-(4-chloro-2-fluorophenyl)-2-methyl-1,3-benzodioxol-4-yl]piperidin-1-yl}methyl)-1-[(1-methyl-1H-1,2,4-triazol-5-yl)methyl]-1H-benzimidazole-6-carboxylic acid]	500 nM	98%	15 nM	86%	

Other lines, results leading:

EC50 ([1]; read-out: Assay 2 EC50)	Emax [1]	EC50 [2]	Emax [2]	EC50 ([1]; Assay 2 EC50 (nM))	Structure (SMILES)
100 nM	86%	2.6 nM	85%		COCCn1c(CN2CCC(c3cccc4c3OC(C)(c3ccc(Cl)cc3)O4)CC2)nc2ccc(C(=O)O)cc21 (stereo not drawn) [Example 33, 2-({4-[2-(4-chlorophenyl)-2-methyl-1,3-benzodioxol-4-yl]piperidin-1-yl}methyl)-1-(2-methoxyethyl)-1H-benzimidazole-6-carboxylic acid]
110 nM	88%	7.8 nM	98%		COCCn1c(CN2CCC(c3cccc4c3OC(C)(c3ccc(C#N)cc3)O4)CC2)nc2ccc(C(=O)O)cc21 (stereo not drawn) [Example 34, 2-({4-[2-(4-cyanophenyl)-2-methyl-1,3-benzodioxol-4-yl]piperidin-1-yl}methyl)-1-(2-methoxyethyl)-1H-benzimidazole-6-carboxylic acid]
170 nM	89%	6.6 nM	86%		COCCn1c(CN2CCC(c3cccc4c3OC(C)(c3ccc(OC)cc3F)O4)CC2)nc2ccc(C(=O)O)cc21 (stereo not drawn) [Example 35, 2-({4-[2-(2-fluoro-4-methoxyphenyl)-2-methyl-1,3-benzodioxol-4-yl]piperidin-1-yl}methyl)-1-(2-methoxyethyl)-1H-benzimidazole-6-carboxylic acid]
1000 nM	83%	81 nM	100%		COCCn1c(CN2CCC(c3cccc4c3OC(C)(c3ccccc3OC)O4)CC2)nc2ccc(C(=O)O)cc21 (stereo not drawn) [Example 37, 1-(2-methoxyethyl)-2-({4-[2-(2-methoxyphenyl)-2-methyl-1,3-benzodioxol-4-yl]piperidin-1-yl}methyl)-1H-benzimidazole-6-carboxylic acid]
240 nM	73%	10 nM	87%		COCCn1c(CN2CCC(c3cccc4c3OC(C)(c3ccc(F)cc3)O4)CC2)nc2ccc(C(=O)O)cc21 (stereo not drawn) [Example 38, 2-({4-[2-(4-fluorophenyl)-2-methyl-1,3-benzodioxol-4-yl]piperidin-1-yl}methyl)-1-(2-methoxyethyl)-1H-benzimidazole-6-carboxylic acid]
130 nM	73%	14 nM	88%		COCCn1c(CN2CCC(c3cccc4c3OC(C)(c3ccc(C(F)(F)F)cc3)O4)CC2)nc2ccc(C(=O)O)cc21 (stereo not drawn) [Example 40, 1-(2-methoxyethyl)-2-[(4-{2-methyl-2-[4-(trifluoromethyl)phenyl]-1,3-benzodioxol-4-yl}piperidin-1-yl)methyl]-1H-benzimidazole-6-carboxylic acid]
	74%	91 nM	78%	2000 nM	COCCn1c(CN2CCC(c3cccc4c3OC(C)(c3ccc(F)c(F)c3)O4)CC2)nc2ccc(C(=O)O)cc21 (stereo not drawn) [Example 41, 2-({4-[2-(3,4-difluorophenyl)-2-methyl-1,3-benzodioxol-4-yl]piperidin-1-yl}methyl)-1-(2-methoxyethyl)-1H-benzimidazole-6-carboxylic acid]
1700 nM	83%	120 nM	93%		COCCn1c(CN2CCC(c3cccc4c3OC(C)(c3ccc(C)nc3)O4)CC2)nc2ccc(C(=O)O)cc21 (stereo not drawn) [Example 42, 1-(2-methoxyethyl)-2-({4-[2-methyl-2-(6-methylpyridin-3-yl)-1,3-benzodioxol-4-yl]piperidin-1-yl}methyl)-1H-benzimidazole-6-carboxylic acid]
